From patent US20130225583A1, “SUBSTITUTED AMINO-TRIAZOLYL PDE10 INHIBITORS” (priority 2010, published 2013)

target: T1, human PDE10A2 (Homo sapiens, UniProt Q9Y233); assay: PDE10 fluorescence polarization (IMAP FP) inhibition assay; type: biochemical; conditions: apparent inhibition constant; FAM-labeled cAMP 50 nM; lysate of AD293 cells transfected with human PDE10A2; room temperature; read-out: PDE10a Ki
T1 construct: made in house; host or cells: AD293 cells, transiently transfected; The cytosolic supernatant of the lysate served as the enzyme
T1 sequence (Q9Y233 267-1055): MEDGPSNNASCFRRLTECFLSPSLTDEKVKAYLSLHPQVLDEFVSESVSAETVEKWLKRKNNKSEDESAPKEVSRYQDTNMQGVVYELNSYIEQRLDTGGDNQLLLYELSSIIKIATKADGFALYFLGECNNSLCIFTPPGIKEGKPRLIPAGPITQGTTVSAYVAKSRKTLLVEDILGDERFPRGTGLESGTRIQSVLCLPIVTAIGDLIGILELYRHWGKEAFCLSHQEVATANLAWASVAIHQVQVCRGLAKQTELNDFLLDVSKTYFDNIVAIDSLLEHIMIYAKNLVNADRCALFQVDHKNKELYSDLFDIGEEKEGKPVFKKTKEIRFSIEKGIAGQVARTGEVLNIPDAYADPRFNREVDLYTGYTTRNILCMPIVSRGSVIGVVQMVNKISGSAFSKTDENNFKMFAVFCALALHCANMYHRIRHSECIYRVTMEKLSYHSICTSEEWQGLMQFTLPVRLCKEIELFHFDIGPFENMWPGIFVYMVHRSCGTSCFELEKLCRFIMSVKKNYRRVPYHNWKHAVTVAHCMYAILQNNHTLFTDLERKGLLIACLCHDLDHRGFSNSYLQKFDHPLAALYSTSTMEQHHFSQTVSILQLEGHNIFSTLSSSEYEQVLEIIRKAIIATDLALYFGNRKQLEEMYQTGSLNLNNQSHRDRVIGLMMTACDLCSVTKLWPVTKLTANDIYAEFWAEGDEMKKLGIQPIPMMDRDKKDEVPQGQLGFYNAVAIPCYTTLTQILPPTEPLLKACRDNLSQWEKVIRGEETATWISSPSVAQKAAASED
Description: The activity of the compounds in accordance with the present invention as PDE10 inhibitors may be readily determined without undue experimentation using a fluorescence polarization (FP) methodology that is well known in the art (Huang, W., et al., J. Biomol Screen, 2002, 7: 215).
In a typical experiment the PDE 10 inhibitory activity of the compounds of the present invention was determined in accordance with the following experimental method. PDE 10A2 was amplified from human fetal brain cDNA (Clontech, Mountain View, Calif.) using a forward primer corresponding to nucleotides 56-77 of human PDE10A2 (Accession No. AF127480, Genbank Identifier 4894716), containing a Kozak consensus sequence, and a reverse primer corresponding to nucleotides 2406-2413 of human PDE10A2 (Accession No. AF127480, Genbank Identifier 4894716). Amplification with Easy-A polymerase (Stratagene, La Jolla, Calif.) was 95° C. for 2 minutes followed by thirty three cycles of 95° C. for 40 seconds, 55° C. for 30 seconds, and 72° C. for 2 minutes 48 seconds. Final extension was 72° C. for 7 minutes. The PCR product was TA cloned into pcDNA3.2-TOPO (Invitrogen, Carlsbad, Calif.) according to standard protocol. AD293 cells with 70-80% confluency were transiently transfected with human PDE10A2/pcDNA3.2-TOPO using Lipofectamine 2000 according to manufacturer specifications (Invitrogen, Carlsbad, Calif.). Cells were harvested 48 hours post-transfection and lysed by sonication (setting 3, 10×5 sec pulses) in a buffer containing 20 mM HEPES, 1 mM EDTA and protease inhibitor cocktail (Roche). Lysate was collected by centrifugation at 75,000×g for 20 minutes. Supernatant containing the cytoplasmic fraction was used for evaluation of PDE10A2 activity. The fluorescence polarization assay for cyclic nucleotide phosphodiesterases was performed using an IMAP® FP kit supplied by Molecular Devices, Sunnyvale, Calif. (product # R8139). IMAP® technology has been applied previously to phosphodiesterase assays (Huang, W., et al., J. Biomol Screen, 2002, 7: 215). Assays were performed at room temperature in 384-well microtiter plates with an incubation volume of 20.2 μL. Solutions of test compounds were prepared in DMSO and serially diluted with DMSO to yield 8 μL of each of 10 solutions differing by 3-fold in concentration, at 32 serial dilutions per plate. 100% inhibition is determined using a known PDE 10 inhibitor, which can be any compound that is present at 5,000 times its Ki value in the assay described as follows, such as papaverine (see Siuciak, et al. Neuropharmacology (2006) 51:386-396; Becker, et al. Behav Brain Res (2008) 186(2):155-60; Threlfell, et al., J Pharmacol Exp Ther (2009) 328(3):785-795), 2-{4-[pyridin-4-yl-1-(2,2,2-trifluoroethyl)-1H-pyrazol-3-yl]phenoxymethyl}quinoline succinic acid or 2-[4-(1-methyl-4-pyridin-4-yl-1H-pyrazol-3-yl)-phenoxymethyl]quinoline succinic acid (see Schmidt, et al. J Pharmacol Exp Ther (2008) 325:681-690; Threlfell, et al., J Pharmacol Exp Ther (2009) 328(3): 785-795). 0% of inhibition is determined by using DMSO (1% final concentrations). A Labcyte Echo 555 (Labcyte, Sunnyvale, Calif.) is used to dispense 200 nL from each well of the titration plate to the 384 well assay plate. A solution of enzyme ( 1/7000 dilution from aliquots; sufficient to produce 20% substrate conversion) and a separate solution of FAM-labeled cAMP PDE from Molecular Devices (product # R7506), at a final concentration of 50 nM are made in the assay buffer (10 mM Tris HCl, pH 7.2, 10 mM MgCl2, 0.05% NaN3 0.01% Tween-20, and 1 mM DTT). The enzyme is added to the assay plates by the addition of 10 μL of enzyme solution to each well, shaken to mix and incubated at room temperature for 60 minutes. The substrate is then added to the assay plates by the addition of 10 μL of substrate solution to each well, shaken to mix, and incubated at room temperature for 60 minutes. […]

Compared with COc1ccc(Cc2nc(N)nn2-c2cc(OC3CCCCC3)ncn2)cc1OC [1-61, 1-(6-(cyclohexyloxy)pyrimidin-4-yl)-5-(3,4-dimethoxybenzyl)-1H-1,2,4-triazol-3-amine], COc1ccc(Cc2nc(N)nn2-c2cc(OCC3CCC3)ncn2)cc1OC [1-62, 1-(6-(cyclobutylmethoxy)pyrimidin-4-yl)-5-(3,4-dimethoxybenzyl)-1H-1,2,4-triazol-3-amine] is 2.2-fold lower in Ki: 19 nM for the first, 8.6 nM for the second.

First: CCCOc1cc(-n2nc(N)nc2Cc2ccc(OC)c(OC)c2)ncn1 [1-63, 5-(3,4-dimethoxybenzyl)-1-(6-propoxypyrimidin-4-yl)-1H-1,2,4-triazol-3-amine]
Second: COc1ccc(Cc2nc(N)nn2-c2cc(OCC(C)(C)C)ncn2)cc1OC [1-64, 5-(3,4-dimethoxybenzyl)-1-(6-(neopentyloxy)pyrimidin-4-yl)-1H-1,2,4-triazol-3-amine]
The Ki of the first is 2.7-fold higher: 35 nM for the first, 13 nM for the second. The second binds more tightly here.

First: COc1ccc(Cc2nc(N)nn2-c2cc(OCc3cn4ccccc4n3)ncn2)cc1OC [1-41, 5-(3,4-dimethoxybenzyl)-1-(6-(imidazo[1,2-a]pyridin-2-ylmethoxy)pyrimidin-4-yl)-1H-1,2,4-triazol-3-amine]
Second: COc1ccc(Cc2nc(N)nn2-c2cc(=O)n(Cc3cn4ccccc4n3)cn2)cc1OC [1-55, 6-(3-amino-5-(3,4-dimethoxybenzyl)-1H-1,2,4-triazol-1-yl)-3-(imidazo[1,2-a]pyridin-2-ylmethyl)pyrimidin-4(3H)-one]
The Ki of the first is 3.6-fold lower: 180 nM for the first, 650 nM for the second.

First: COc1ccc(Cc2nc(N)nn2-c2ccc(Cl)c(Cl)c2)cc1OC [1-16, 1-(3,4-dichlorophenyl)-5-(3,4-dimethoxybenzyl)-1H-1,2,4-triazol-3-amine]
Second: COc1ccc(Cc2nc(N)nn2-c2cc(C)cc(C)c2)cc1OC [1-17, 5-(3,4-dimethoxybenzyl)-1-(3,5-dimethylphenyl)-1H-1,2,4-triazol-3-amine]
The Ki of the first is 1.5-fold higher: 153 nM for the first, 101 nM for the second.

Going from COc1ccc(Cc2nc(N)nn2-c2cc(=O)n(Cc3ccccc3C(F)(F)F)cn2)cc1OC [1-50, 6-(3-amino-5-(3,4-dimethoxybenzyl)-1H-1,2,4-triazol-1-yl)-3-(2-(trifluoromethyl)benzyl)pyrimidin-4(3H)-one] to COc1ccc(Cc2nc(N)nn2-c2cc(=O)n(Cc3ccccn3)cn2)cc1OC [1-49, 6-(3-amino-5-(3,4-dimethoxybenzyl)-1H-1,2,4-triazol-1-yl)-3-(pyridin-2-ylmethyl)pyrimidin-4(3H)-one], the Ki falls from 190 nM to under 3.8 nM. The second binds more tightly here.

First: COc1ccc(Cc2nc(N)nn2-c2cc(OC(C)C)ncn2)cc1OC [1-60, 5-(3,4-dimethoxybenzyl)-1-(6-isopropoxypyrimidin-4-yl)-1H-1,2,4-triazol-3-amine]
Second: COc1ccc(Cc2nc(N)nn2-c2cc(OCCN3CCNC3=O)ncn2)cc1OC [1-44, 1-(2-(6-(3-amino-5-(3,4-dimethoxybenzyl)-1H-1,2,4-triazol-1-yl)pyrimidin-4-yloxy)ethyl)imidazolidin-2-one]
The Ki of the first is 21-fold higher: 370 nM for the first, 18 nM for the second.

Compared with COc1ccc(Cc2nc(N)nn2-c2cc(Oc3ccc4ccccc4n3)nc(C)n2)cc1OC [1-83, 3-amino-5-(3,4-dimethoxybenzyl)-1-(2-methyl-6-(quinolin-2-yloxy)pyrimidin-4-yl)-1H-1,2,4-triazole-2,4-diium], COc1ccc(Cc2nc(N)nn2-c2cc(Oc3cccnc3)nc(C)n2)cc1OC [1-79, 5-(3,4-dimethoxybenzyl)-1-(2-methyl-6-(pyridin-3-yloxy)pyrimidin-4-yl)-1H-1,2,4-triazol-3-amine] is 2.8-fold higher in Ki: 47 nM for the first, 130 nM for the second.

Compared with COc1ccc(Cc2nc(N)nn2-c2cc(=O)n(CCN3CCOCC3)cn2)cc1OC [1-48, 6-(3-amino-5-(3,4-dimethoxybenzyl)-1H-1,2,4-triazol-1-yl)-3-(2-morpholinoethyl)pyrimidin-4(3H)-one], COc1ccc(Cc2nc(N)nn2-c2cc(=O)n(CCN3CCNC3=O)cn2)cc1OC [1-57, 6-(3-amino-5-(3,4-dimethoxybenzyl)-1H-1,2,4-triazol-1-yl)-3-(2-(2-oxoimidazolidin-1-yl)ethyl)pyrimidin-4(3H)-one] is higher in Ki: under 3.8 nM for the first, 110 nM for the second.

Going from COc1ccc(Cc2nc(N)nn2-c2cc(=O)n(Cc3nc4ccccc4[nH]3)cn2)cc1OC [1-54, 3-((1H-benzo[d]imidazol-2-yl)methyl)-6-(3-amino-5-(3,4-dimethoxybenzyl)-1H-1,2,4-triazol-1-yl)pyrimidin-4(3H)-one] to COc1ccc(Cc2nc(N)nn2-c2cc(OCc3nc4ccccc4[nH]3)ncn2)cc1OC [1-40, 1-(6-((1H-benzo[d]imidazol-2-yl)methoxy)pyrimidin-4-yl)-5-(3,4-dimethoxybenzyl)-1H-1,2,4-triazol-3-amine], the Ki falls from 390 nM to 19 nM (21-fold).

Going from COc1ccc(CNc2nc(Cc3ccc(OC)c(OC)c3)n(-c3cc(Oc4ccccn4)nc(C)n3)n2)cc1 [1-76, 5-(3,4-dimethoxybenzyl)-N-(4-methoxybenzyl)-1-(2-methyl-6-(pyridin-2-yloxy)pyrimidin-4-yl)-1H 1,2,4-triazol-3-amine] to COc1ccc(CNc2nc(Cc3ccc(OC)c(OC)c3)n(-c3cc(C#Cc4ccccn4)nc(C)n3)n2)cc1 [1-84, 5-(3,4-dimethoxybenzyl)-N-(4-methoxybenzyl)-1-(2-methyl-6-(pyridin-2-ylethynyl)pyrimidin-4-yl)-1H-1,2,4-triazol-3-amine], the Ki rises from under 3.8 nM to 19 nM.

First: COc1ccc(Cc2nc(N)nn2-c2cc(OCc3ccc4ccccc4c3)ncn2)cc1OC [1-38, 5-(3,4-dimethoxybenzyl)-1-(6-(naphthalen-2-ylmethoxy)pyrimidin-4-yl)-1H-1,2,4-triazol-3-amine]
Second: COc1ccc(COc2cc(-n3nc(N)nc3Cc3ccc(OC)c(OC)c3)ncn2)cc1 [1-36, 5-(3,4-dimethoxybenzyl)-1-(6-(4-methoxybenzyloxy)pyrimidin-4-yl)-1H-1,2,4-triazol-3-amine]
The Ki of the first is 10-fold lower: 54 nM for the first, 550 nM for the second.

COc1ccc(Cc2nc(N)nn2-c2cc(=O)n(Cc3ccc(-c4ccncc4)cc3)cn2)cc1OC [1-56, 6-(3-amino-5-(3,4-dimethoxybenzyl)-1H-1,2,4-triazol-1-yl)-3-(4-(pyridin-4-yl)benzyl)pyrimidin-4(3H)-one] and CCCn1cnc(-n2nc(N)nc2Cc2ccc(OC)c(OC)c2)cc1=O [1-71, 6-(3-amino-5-(3,4-dimethoxybenzyl)-1H-1,2,4-triazol-1-yl)-3-propylpyrimidin-4(3H)-one] are within 1.5-fold of each other in Ki: 540 nM for the first, 620 nM for the second.

First: COc1ccc(Cc2nc(N)nn2-c2cc(=O)n(Cc3cnc(N4CCNCC4)cn3)cn2)cc1OC [1-58, 6-(3-amino-5-(3,4-dimethoxybenzyl)-1H-1,2,4-triazol-1-yl)-3-((5-(piperazin-1-yl)pyrazin-2-yl)methyl)pyrimidin-4(3H)-one]
Second: COc1ccc(Cc2nc(N)nn2-c2cc(=O)n(CC3CCC3)cn2)cc1OC [1-70, 6-(3-amino-5-(3,4-dimethoxybenzyl)-1H-1,2,4-triazol-1-yl)-3-(cyclobutylmethyl)pyrimidin-4(3H)-one]
The Ki of the first is 17-fold lower: 37 nM for the first, 640 nM for the second.

COc1ccc(Cc2nc(N)nn2-c2cc(=O)n(CC3(c4ccccc4)CC3(F)F)cn2)cc1OC (stereo not drawn) [1-59, 6-(3-amino-5-(3,4-dimethoxybenzyl)-1H-1,2,4-triazol-1-yl)-3-((2,2-difluoro-1-phenylcyclopropyl)methyl)pyrimidin-4(3H)-one] was tested, and the Ki was 220 nM.
